For orientation: IC50 means the concentration that gives 50% inhibition.

human PAD4 (hPAD4), sequence (Q9UM07 whole entry): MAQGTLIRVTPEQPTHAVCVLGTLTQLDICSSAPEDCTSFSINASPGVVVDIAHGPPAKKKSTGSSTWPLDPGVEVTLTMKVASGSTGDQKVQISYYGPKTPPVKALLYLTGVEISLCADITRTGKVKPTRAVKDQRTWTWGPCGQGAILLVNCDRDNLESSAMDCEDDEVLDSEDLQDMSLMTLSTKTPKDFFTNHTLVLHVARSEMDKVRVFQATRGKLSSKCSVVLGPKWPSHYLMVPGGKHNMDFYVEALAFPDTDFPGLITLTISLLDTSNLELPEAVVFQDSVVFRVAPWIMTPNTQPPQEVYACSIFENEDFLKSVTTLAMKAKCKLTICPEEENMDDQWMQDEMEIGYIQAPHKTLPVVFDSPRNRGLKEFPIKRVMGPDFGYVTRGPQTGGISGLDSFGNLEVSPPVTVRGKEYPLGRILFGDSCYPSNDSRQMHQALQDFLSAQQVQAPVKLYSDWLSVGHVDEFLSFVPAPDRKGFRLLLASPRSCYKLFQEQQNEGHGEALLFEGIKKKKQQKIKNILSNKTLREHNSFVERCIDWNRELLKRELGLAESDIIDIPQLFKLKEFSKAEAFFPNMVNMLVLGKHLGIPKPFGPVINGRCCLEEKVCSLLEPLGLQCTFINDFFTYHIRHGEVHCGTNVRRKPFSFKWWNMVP

For this assay, the target named is human PAD4 (hPAD4) (Homo sapiens (Human), UniProt Q9UM07). The experiment in a line: RFMS Human PAD4 Functional Assay 1. Particulars: RFMS assay 1; 5 nM hPAD4, 250 μM BAEE substrate, 50 μM calcium, 37° C. It is filed as biochemical. On the procedure: RFMS Human PAD4 Functional Assay 1:
Compounds were solubilized in 100% DMSO to achieve all) mM compound concentration. Compound stock solutions were stored at RT. A series of dilutions were prepared in DMSO and mixed 8 times with 20 μL mixing volume. Final top concentration of compound in the assay is 50 μM. Final assay conditions were as follows: • Reaction volume: 26 μl • Assay buffer: 25 mM hepes, pH 7.5, 5 mM NaCl, 1 mM DTT, 0.2 mg/ml BSA, 0.01% CHAPS, 50 μM Calcium, and 5 μM TPEN • Final concentrations: 5 nM hPAD4 enzyme, 250 μM BASE, and 0.5% DMSO • Total incubation time: 30 mins compound and enzyme preincubation at 37° C., 90 min enzyme/substrate reaction, 30 min reaction with phenyl glyoxal at 37° C. • Stop solution: 40 μl 5% TCA in ACN
0.13 μL of compound solution was added to 13 μL of 10 nM PAD4 in assay buffer. After 30 min 13 μl of 500 μM of BAEE was added in 25 mM hepes, pH 7.5, 5 mM NaCl, 1 mM DTT, 0.2 mg/ml BSA, 0.01% CHAPS, 50 μM Calcium, 5 μM TPEN was added and the reaction incubated for 90 min at 37° C. The enzymatic reaction was quenched by addition of 15 μl of 6.1N TCA, 100% Final Concentration is 20%, 35 μl of 8.5 mM phenyl glyoxal (final concentration 4 mM) is then added and the reaction is incubated for 30 min at 37° C.
After 30 minutes the plates are spun down to remove all precipitate. The enzyme reaction was quenched with an equal volume of methanol containing internal standard (modified citrulline). Samples were loaded onto the Rapid Fire RF300 system (Agilent) wherein they were first sipped for 1000 ms and then directly loaded to a C18 separations cartridge using a mixture of acetonitrile containing 0.01% formic acid for 3000 ms desalting. The flow rate of the mobile phase was 1.5 ml/min. Once the samples were eluted from the cartridge, a mobile phase of acetonitrile containing 0.01% formic acid was used to move the samples into the mass spectrometer for 4000 ms at a flow rate of 1.25 ml/min/Sciex API5500 triple quadrupole mass spectrometer (Applied Biosystems) equipped with ESI was used to analyze the peptidyl citrulline and internal standard ions.
MRM transition of product and internal standard were monitored at m/z 424.5 to 350.4 and m/z 293 to 247 respectively. The dwell time for each transition was set at 200 ms, and the ESI voltage was used at 5500 with a source temperature of 400° C. Extracted ion peaks for each transition were integrated using the Rapid Fire Integrator software. Peak area of analyte was normalized with internal standard.).
On to `COc1cc(C(=O)N2C[C@H](N)C[C@@H](F)C2)cc2sc(-c3cc4ccc(-c5ccc6c(c5)C(=O)NC6)nc4n3CC3CC3)c(C)c12` [Example 140, 6-(2-(6-((3R,5R)-3-Amino-5-fluoropiperidine-1-carbonyl)-4-methoxy-3-methylbenzo[b]thiophen-2-yl)-1-(cyclopropylmethyl)-1H-pyrrolo[2,3-b]pyridin-6-yl)isoindolin-1-one], for which the IC50 was 346 nM.
In the case of `COc1cc(C(=O)N2CCC[C@@H](N)C2)cn2nc(-c3cc4cccc(C5CN(C(=O)C(C)(C)OC)C5)c4n3CC3CC3)c(C)c12` [Example 516, (R)-1-(3-(2-(6-(3-Aminopiperidine-1-carbonyl)-4-methoxy-3-methylpyrazolo[1,5-a]pyridin-2-yl)-1-(cyclopropylmethyl)-1H-indol-7-yl)azetidin-1-yl)-2-methoxy-2-methylpropan-1-one], the IC50 was 1040 nM.
Turning to `Cc1ccc2cc(-c3oc4cc(C(=O)N5CC6CCC5[C@@H]6N)ccc4c3C)n(CC3CC3)c2n1` (stereo partly drawn) [Example 171, ((7R)-7-Amino-2-azabicyclo[2.2.1]heptan-2-yl)(2-(1-(cyclopropylmethyl)-6-methyl-1H-pyrrolo[2,3-b]pyridin-2-yl)-3-methylbenzofuran-6-yl)methanone], the IC50 is 76 nM.
As for `COc1cc(C(=O)N2CCC[C@@H](N)C2)cn2nc(-c3cc4ccc(-c5ccc(NS(C)(=O)=O)cc5)cc4n3CC3CC3)c(C)c12` [Example 231, N-[4-(2-{6-[(3R)-3-Aminopiperidine-1-carbonyl]-4-methoxy-3-methylpyrazolo[1,5-a]pyridin-2-yl}-1-(cyclopropylmethyl)-1H-indol-6-yl)phenyl]methanesulfonamide], the IC50 is 460 nM.
Regarding `Cc1c(-c2cc3cccc(C4CCN(C(=O)C5CC(O)(C(F)(F)F)C5)CC4)c3n2CC2CC2)nn2cc(C(=O)N3C[C@H](N)C[C@@H](F)C3)cc(F)c12` (mixture of isomers) [Example 421, ((3R,5R)-3-Amino-5-fluoropiperidin-1-yl)(2-(1-(cyclopropylmethyl)-7-(1-(3-hydroxy-3-(trifluoromethyl)cyclobutane-1-carbonyl)piperidin-4-yl)-1H-indol-2-yl)-4-fluoro-3-methylpyrazolo[1,5-a]pyridin-6-yl)methanone], the IC50 came to 80 nM.
Then `Cc1ccc2cc(-c3nn4cc(C(=O)N5CC6CCC5[C@@H]6N)cc(F)c4c3C)n(CC3CC3)c2n1` (stereo partly drawn) [Example 40, 3((7R)-7-Amino-2-azabicyclo[2.2.1]heptan-2-yl)(2-(1-(cyclopropylmethyl)-6-methyl-1H-pyrrolo[2,3-b]pyridin-2-yl)-4-fluoro-3-methylpyrazolo[1,5-a]pyridin-6-yl)methanone], with 25 nM; and `Cc1c(-c2cc3cccc(C4CCN(C(=O)[C@H]5CCC[C@@H](O)C5)CC4)c3n2CC2CC2)nn2cc(C(=O)N3CCC[C@@H](N)C3)ccc12` [Example 447, ((R)-3-aminopiperidin-1-yl)(2-(1-(cyclopropylmethyl)-7-(1-((1S,3R)-3-hydroxycyclohexane-1-carbonyl)piperidin-4-yl)-1H-indol-2-yl)-3-methylpyrazolo[1,5-a]pyridin-6-yl)methanone], with 170 nM.
Turning to `COc1cc(C(=O)N2C[C@H](N)C[C@@H](F)C2)cn2nc(-c3cc4cccc(OCC5CNC(=O)C5)c4n3CC3CC3)c(C)c12` (single isomer, unassigned) [Example 565], the IC50 worked out at 20 nM.
The same measure for `COc1cc(C(=O)N2C[C@H](N)C[C@@H](F)C2)cn2nc(-c3cc4ccnc(OCCn5cncn5)c4n3CC3CC3)c(C)c12` [Example 592, (2-(7-(2-(1H-1,2,4-Triazol-1-yl)ethoxy)-1-(cyclopropylmethyl)-1H-pyrrolo[2,3-c]pyridin-2-yl)-4-methoxy-3-methylpyrazolo[1,5-a]pyridin-6-yl)((3R,5R)-3-amino-5-fluoropiperidin-1-yl)methanone]: 30 nM; for `Cc1c(-c2cc3cccc(OCC4CNC(=O)C4)c3n2CC2CC2)nn2cc(C(=O)N3C[C@H](N)C[C@@H](F)C3)ccc12` (single isomer, unassigned) [Example 573]: 110 nM.
The same measure for `Cc1c(-c2cc3cc(F)cc(C4CCN(C(=O)[C@H]5CC[C@H](O)CC5)CC4)c3n2CC2CC2)nn2cc(C(=O)N3C[C@H](N)C[C@@H](F)C3)ccc12` [Example 487, ((3R,5R)-3-Amino-5-fluoropiperidin-1-yl)(2-(1-(cyclopropylmethyl)-5-fluoro-7-(1-((1r,4r)-4-hydroxycyclohexane-1-carbonyl)piperidin-4-yl)-1H-indol-2-yl)-3-methylpyrazolo[1,5-a]pyridin-6-yl)methanone]: 200 nM; for `Cc1c(-c2cc3ccc(-c4ccc5c(c4)C(=O)NC5)nc3n2CC2CC2)oc2cc(C(=O)N3CC4CCC3[C@@H]4N)ccc12` (stereo partly drawn) [Example 166, 6-(2-(6-((7R)-7-Amino-2-azabicyclo[2.2.1]heptane-2-carbonyl)-3-methylbenzofuran-2-yl)-1-(cyclopropylmethyl)-1H-pyrrolo[2,3-b]pyridin-6-yl)isoindolin-1-one]: 56 nM.
Then `Cc1c(-c2cc3ccc(-c4ccc(C(N)=O)c(F)c4)cc3n2CC2CC2)nn2cc(C(=O)N3C[C@H](N)C[C@@H](F)C3)ccc12` [Example 93, 4-(2-(6-((3R,5R)-3-Amino-5-fluoropiperidine-1-carbonyl)-3-methylpyrazolo[1,5-a]pyridin-2-yl)-1-(cyclopropylmethyl)-1H-indol-6-yl)-2-fluorobenzamide], with 220 nM.
Take `CO[C@H](C)C(=O)N1CCC(c2cc(F)cc3cc(-c4nn5cc(C(=O)N6C[C@H](N)C[C@@H](F)C6)ccc5c4C)n(CC4CC4)c23)CC1` [Example 498, (R)-1-(4-(2-(6-((3R,5R)-3-Amino-5-fluoropiperidine-1-carbonyl)-3-methylpyrazolo[1,5-a]pyridin-2-yl)-1-(cyclopropylmethyl)-5-fluoro-1H-indol-7-yl)piperidin-1-yl)-2-methoxypropan-1-one]: the IC50 was determined as 70 nM.
The same measure for `Cc1c(-c2cc3ccc(-c4cccc(O)c4F)nc3n2CC2CC2)nn2cc(C(=O)N3CCC[C@@H](N)C3)cc(F)c12` [Example 283, 3-(2-{6-[(3R)-3-Aminopiperidine-1-carbonyl]-4-fluoro-3-methylpyrazolo[1,5-a]pyridin-2-yl}-1-(cyclopropylmethyl)-1H-pyrrolo[2,3-b]pyridin-6-yl)-2-fluorophenol]: 330 nM; for `CO[C@@H](C)C(=O)N1CC(c2cccc3cc(-c4nn5cc(C(=O)N6C[C@H](N)C[C@@H](F)C6)ccc5c4C)n(CC4CC4)c23)C1` [Example 542, (S)-1-(3-(2-(6-((3R,5R)-3-Amino-5-fluoropiperidine-1-carbonyl)-3-methylpyrazolo[1,5-a]pyridin-2-yl)-1-(cyclopropylmethyl)-1H-indol-7-yl)azetidin-1-yl)-2-methoxypropan-1-one]: 580 nM; for `Cc1c(-c2cc3cccc(C4CCN(C(=O)C5CC(O)C5)CC4)c3n2CC2CC2)nn2cc(C(=O)N3CCC[C@@H](N)C3)ccc12` (mixture of isomers) [Example 465, (R)-(3-aminopiperidin-1-yl)(2-(1-(cyclopropylmethyl)-7-(1-(3-hydroxycyclobutane-1-carbonyl)piperidin-4-yl)-1H-indol-2-yl)-3-methylpyrazolo[1,5-a]pyridin-6-yl)methanone]: 130 nM.
Then `CC(=O)N1CCC(c2cccc3cc(-c4nn5cc(C(=O)N6CCC[C@@H](N)C6)cc(F)c5c4C)n(CC4CC4)c23)CC1` [Example 413, (R)-1-(4-(2-(6-(3-Aminopiperidine-1-carbonyl)-4-fluoro-3-methylpyrazolo[1,5-a]pyridin-2-yl)-1-(cyclopropylmethyl)-1H-indol-7-yl)piperidin-1-yl)ethan-1-one], with 30 nM.
Then `Cc1c(-c2cc3cccc(C4CN(C(=O)C5CCCCO5)C4)c3n2CC2CC2)nn2cc(C(=O)N3CCC[C@@H](N)C3)ccc12` (mixture of isomers) [Example 545, ((R)-3-Aminopiperidin-1-yl)(2-(1-(cyclopropylmethyl)-7-(1-(tetrahydro-2H-pyran-2-carbonyl)azetidin-3-yl)-1H-indol-2-yl)-3-methylpyrazolo[1,5-a]pyridin-6-yl)methanone], with 260 nM.

The values above are taken from patent US12473304B2, “Heterocyclic PAD4 inhibitors” (BRISTOL-MYERS SQUIBB COMPANY, priority 2020, dated 2025).
